Laboratory results taken from article PMC11050599, “Novel Tetracyclic Azaphenothiazines with the Quinoline Ring as New Anticancer and Antibacterial Derivatives of Chlorpromazine” (International Journal of Molecular Sciences, 2024).
Values after ≈ are worked out from the molar mass of the structure shown.

Experiments:
[1] = system: MDA-MB-231 (breast cancer); test: MTT assay, MDA-MB-231 cells; type: cell-based, human; conditions: for IC50: Homo sapiens, MDA-MB-231, MTT, 72 h, MDA-MB231, read-out: IC50 MDA; for SI MDA: SI = IC50 for normal cell line (HaCaT)/IC50 cancer cell line
How it was run: (§1)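 After a 72 h incubation of 1 × 10^4 cells per well with compound, absorbance from MTT reduction was converted to percent of the medium-only control.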

A549 (lung cancer) = test: MTT assay, A549 cells; type: cell-based, human; conditions: for IC50: Homo sapiens, A549, MTT, 72 h, mean SD, read-out: IC50 A549
How it was run: as §1

cancer cell lines = test: MTT assay, summary over several cell lines; type: cell-based, human
Method: (§2) The human cell lines, such as A549 (lung cancer), MDA-MB-231 (breast cancer), MiaPaca-2 (pancreatic cancer), PC3 (metastatic prostate cancer), HCT-116 (colon carcinoma), and HaCaT (immortalized keratinocytes), were sourced from the American Type Culture Collection (ATCC) in Rockville, USA. Culturing conditions varied as follows: HCT116 cells were cultured in MEM (ThermoSci, Waltham, MA, USA), A549, MDA-MB-231, MiaPaca, HaCaT cells in DMEM High Glucose and PC3 cells were cultured in RPMI (Biowest SAS, Nuaillé, France). The growth medium consisted of 10% fetal bovine serum (FBS, Sigma-Aldrich, St. Louis, MO, USA), 20 mM HEPES (Biowest, Nuaillé, France), and antibiotics (100 U/mL of penicillin and 100 μg/mL of streptomycin) from Gibco, Grand Island, NY, USA. […] These compounds were added to 96-well plates containing study cells (1 × 10^4 cells per well) and incubated for 72 h. […] Cell absorbance results were incorporated into the formula for calculating the relative MTT level (%), enabling the assessment of cell viability following exposure to the test compounds. The cell viability percentage represents the MTT reduction in cells treated with the test compounds compared to the control sample, where only the medium was added to the cells.

PC3 (prostate cancer) = test: MTT assay, PC3 cells; type: cell-based, human; conditions: for IC50: Homo sapiens, PC-3, MTT, 72 h, read-out: IC50 PC3; for SI PC3: SI = IC50 for normal cell line (HaCaT)/IC50 cancer cell line
Method: as §2

HCT116 (colon cancer) = test: MTT assay, HCT116 cells; type: cell-based, human; conditions: for IC50: Homo sapiens, HCT-116, MTT, 72 h, read-out: IC50 HCT116; for SI HCT116: SI = IC50 for normal cell line (HaCaT)/IC50 cancer cell line
Method: as §2

[2] = system: HaCaT (immortalized human keratinocytes); test: MTT assay, HaCaT normal cells; type: cell-based; conditions: Homo sapiens, HaCaT; MTT, 72 h, normal cells; read-out: IC50 HaCaT (Table 3)
How it was run: as §1

[3] = system: MiaPaCa-2 (pancreas cancer); test: MTT assay, MiaPaCa-2 cells; type: cell-based, human; conditions: for IC50: Homo sapiens, MIA PaCa-2, MTT, 72 h, read-out: IC50 MiaPaCa-2; for SI MiaPaCa-2: SI = IC50 for normal cell line (HaCaT)/IC50 cancer cell line
Method: as §2

A549 cells = test: Annexin V-FITC/PI apoptosis flow cytometry, A549; type: cell-based, human
Method: (§3) To analyze the number of cells in early apoptosis, late apoptosis, or necrosis, A549, MiaPaca-2, and HCT-116 cell lines were cultured in 6-well plates with a seeding density of 1 × 10^5 cells per well. These cells were then treated with selected compounds (4, 5, and 8) at their respective IC50 concentrations and incubated for 72 h. Subsequently, a commercially available kit, the FITC: Annexin V Apoptosis Detection Kit I from BD Biosciences Pharmingen in San Jose, CA, USA, was utilized to assess apoptosis. After 72 h the cells were harvested, washed, and labeled with Annexin V-FITC and propidium iodide (PI) following the manufacturer’s protocol (Becton Dickinson), as previously described. The stained cells were analyzed by flow cytometry. The cells were identified as early apoptotic (Annexin V+/PI−) or late apoptotic/necrotic (Annexin V+/PI+).

HCT116 cells [4] = test: Annexin V-FITC/PI apoptosis flow cytometry, HCT116; type: cell-based, human
Method: as §3

HCT116 cells [5] = test: Cell cycle analysis by flow cytometry, HCT116; type: cell-based, human; conditions: IC50, 24 h, compared to the control
Method: In brief, cells were seeded at a density of 1 × 10^5 cells/well on a six-well plate and allowed to adhere for 24 h. […] Both population cells (the attached and detached) were collected and centrifuged at 400× g for 5 min at 4 °C. After centrifugation, the cells were washed twice with 0.9% NaCl and subsequently fixed in 500 μL of 70 % cold ethanol overnight.
Before analysis, the fixed cells underwent another centrifugation step at 850× g for 5 min at 4 °C and were washed with PBS. Following the washes, the cells were incubated with 50 μL of RNase (100 μg/mL) and 200 μL of propidium iodide (PI) (50 μg/mL) at 37 °C for 30 min in the dark. Finally, 100 μL of PBS was added to each sample. Flow cytometry (Becton Dickinson FACS Verse, Franklin Lakes, NJ, USA) was then used to analyze the cell cycle distribution, identifying cells in various stages including sub-G1, G0/G1, S, and G2/M phases. Each assay was performed in quadruplicate.

E. coli ATCC 25922 = test: MIC broth microdilution; type: cell-based; conditions: Escherichia coli, ATCC25922; 19 h, 35 °C; read-out: MIC E. coli ATCC 25922
How it was run: (§4)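 Two-fold serial broth microdilution in Mueller-Hinton II broth, final inoculum adjusted to […]. Compounds dissolved in DMSO, final solvent at most 1%.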

S. aureus ATCC 6538 = test: MIC broth microdilution; type: cell-based; conditions: Staphylococcus aureus, ATCC6538; 19 h, 35 °C; read-out: MIC S. aureus ATCC 6538
How it was run: as §4

S. aureus ATCC 29213 = test: MIC broth microdilution; type: cell-based; conditions: Staphylococcus aureus, ATCC29213; 19 h, 35 °C; read-out: MIC S. aureus ATCC 29213
How it was run: as §4

P. aeruginosa ATCC 15442 = test: MIC broth microdilution; type: cell-based; conditions: Pseudomonas aeruginosa, ATCC15442; 19 h, 35 °C; read-out: MIC P. aeruginosa ATCC 15442
How it was run: as §4

[6] = system: S. epidermidis ATCC 35984; test: MIC broth microdilution; type: cell-based; conditions: Staphylococcus epidermidis, ATCC35984; 19 h, 35 °C; read-out: MIC S. epidermidis ATCC 35984
How it was run: as §4

S. aureus NCTC 4163 = test: MIC broth microdilution; type: cell-based; conditions: Staphylococcus aureus, NCTC4163; 19 h, 35 °C; read-out: MIC S. aureus NCTC 4163
How it was run: as §4

[7] = system: S. epidermidis ATCC 12228; test: MIC broth microdilution; type: cell-based; conditions: Staphylococcus epidermidis, ATCC12228; 19 h, 35 °C; read-out: MIC S. epidermidis ATCC 12228
How it was run: as §4

S. aureus ATCC 25923 = test: MIC broth microdilution; type: cell-based; conditions: Staphylococcus aureus, ATCC25923; 19 h, 35 °C; read-out: MIC S. aureus ATCC 25923
How it was run: as §4

MiaPaCa-2 cells = test: Annexin V-FITC/PI apoptosis flow cytometry, MiaPaCa-2; type: cell-based, human
Method: as §3

[8] = representative dot plot, Figure 4A, IC50, 72 h
[9] = representative dot plot, Figure 4C, IC50, 72 h
[10] = representative dot plot, Figure 4B, IC50, 72 h

Compound	IC50 [1]	SI MDA [1]	IC50 (A549 (lung cancer))	IC50 (PC3 (prostate cancer))	SI PC3 (PC3 (prostate cancer))	IC50 (HCT116 (colon cancer))	SI HCT116 (HCT116 (colon cancer))	IC50 [2]	IC50 [3]	MIC (E. coli ATCC 25922)	MIC (S. aureus ATCC 6538)	MIC (S. aureus ATCC 29213)	MIC (P. aeruginosa ATCC 15442)	MIC [6]	MIC (S. aureus NCTC 4163)	MIC [7]	MIC (S. aureus ATCC 25923)	SI MiaPaCa-2 [3]	further results
COc1cccc2c1C(=O)c1c(O)c3c(c(O)c1C2=O)C[C@@](O)(C(=O)CO)C[C@@H]3O[C@H]1C[C@H](N)[C@H](O)[C@H](C)O1 [DX, doxorubicin, reference compound]	0.8 ± 0.1 µM	0.15	0.6 ± 0.2 µM	0.8 ± 0.1 µM	0.15	0.59 ± 0.02 µM	0.5	0.3 ± 0.1 µM	0.6 ± 0.2 µM										selectivity index (SI) range (cancer cell lines; A549 and MDA-MB-231 versus HaCaT): 0.14–0.15
CN(C)CCCN1c2cc(Cl)ccc2Sc2cc3ccccc3nc21 [Compound 8, 3-(8-Chloroquino[3,2-b]benzo[1,4]thiazin-6-yl)-N,N-dimethylpropan-1-amine]	52.1 ± 2.7 µM	1.2	8.2 ± 3.6 µM	52.1 ± 7.1 µM	1.2	1.6 ± 0.8 µM		62.3 ± 2.5 µM	40.2 ± 0.7 µM	64 µg/mL (≈ 173 µM)	8 µg/mL (≈ 21.6 µM)	8 µg/mL (≈ 21.6 µM)	256 µg/mL (≈ 692 µM)	8 µg/mL (≈ 21.6 µM)	8 µg/mL (≈ 21.6 µM)	8 µg/mL (≈ 21.6 µM)	8 µg/mL (≈ 21.6 µM)	1.6	cells in late apoptosis or necrosis, A549 (A549 cells; compound at IC50, 72 h): 42%; A549: Alive (A549 cells; [8]): 62.41%; A549: Early Apoptotic (A549 cells; [8]): 2.39%; A549: Necrotic (A549 cells; [8]): 24.93%; A549: Necrotic/Late Apoptotic (A549 cells; [8]): 10.27%; cells in early apoptosis, HCT116 (HCT116 cells [4]; compound at IC50, 72 h): 9.09 ± 0.5%; cells in late apoptosis/necrosis, HCT116 (HCT116 cells [4]; compound at IC50, 72 h): 8.55 ± 0.33%; HCT-116: Alive (HCT116 cells [4]; [9]): 78.75%; HCT-116: Early Apoptotic (HCT116 cells [4]; [9]): 9.09%; HCT-116: Necrotic (HCT116 cells [4]; [9]): 3.61%; HCT-116: Necrotic/Late Apoptotic (HCT116 cells [4]; [9]): 8.55%; increase in the cell amount at the sub-G1 phase, HCT116 (HCT116 cells [5]): 5 fold; increase in the number of cells in the G2/M phase, HCT116 (HCT116 cells [5]): approximately 1.3 fold; increase in the number of cells in the S phase, HCT116 (HCT116 cells [5]): approximately 2 fold
Clc1ccc2c(c1)Nc1nc3ccccc3cc1S2 [Compound 5, 6H-8-chloroquino[3,2-b]benzo[1,4]thiazine]	76.5 ± 0.8 µM	0.7	14.9 ± 2.7 µM	76.5 ± 8.1 µM	0.7	33.5 ± 6.8 µM	1.7	56.5 ± 4.5 µM	11.1 ± 0.4 µM	256 µg/mL (≈ 899 µM)	8 µg/mL (≈ 28.1 µM)	8 µg/mL (≈ 28.1 µM)	256 µg/mL (≈ 899 µM)	8 µg/mL (≈ 28.1 µM)	8 µg/mL (≈ 28.1 µM)	8 µg/mL (≈ 28.1 µM)	8 µg/mL (≈ 28.1 µM)	5.0	SI A549 (A549 (lung cancer); SI = IC50 for normal cell line (HaCaT)/IC50 cancer cell line): 3.8; IC50 (cancer cell lines; Homo sapiens, range over two cell lines not given, read-out: IC50 range against two tested cell lines): 11.1 to 14.9 µM; cells in early apoptosis, MiaPaCa-2 (MiaPaCa-2 cells; compound at IC50, 72 h): 4.56%; cells in late apoptosis/necrosis, MiaPaCa-2 (MiaPaCa-2 cells; compound at IC50, 72 h): 23%; MiaPaca: Alive (MiaPaCa-2 cells; [10]): 72.68%; MiaPaca: Early Apoptotic (MiaPaCa-2 cells; [10]): 4.56%; MiaPaca: Necrotic (MiaPaCa-2 cells; [10]): 9.46%; MiaPaca: Necrotic/Late Apoptotic (MiaPaCa-2 cells; [10]): 13.29%
